≈ marks a conversion by molar mass, not a printed value. Read-outs that look alike come from different tables or passages of the source.
Experiments:
Mtb strain mc^27000 = assay: microbe, parasite or virus in culture; type: cell-based, Mycobacterium tuberculosis
[1] = biological target: Mtb Pks13-TE domain (wild-type) (Mycobacterium tuberculosis, UniProt I6X8D2); assay: biochemical; type: biochemical
[2] = system: human dermal fibroblast (HDF) cells; settings: for Non-Toxic Concentration: human, 48 h
[3] = Mtb mc^27000, liquid medium, 96-well plates
[4] = […], mean ± s.d. of triplicates, NI: no inhibition
[5] = Mtb Pks13-TE domain, mean ± s.d. of triplicates, read-out: IC50
[6] = Pks13-TE, 20 μM 4-MUH, read-out: IC50
[7] = Mtb mc^27000, liquid medium, 96-well plates, read-out: MIC
[8] = Mycobacterium tuberculosis, Mtb mc^27000, liquid medium, 96-well plates, read-out: MIC
[9] = Mycobacterium tuberculosis, […], mean ± s.d. of triplicates, NI: no inhibition, read-out: MIC
[10] = Mycobacterium tuberculosis, read-out: Pks13 MIC
[11] = Pks13 enzyme inhibition, read-out: Pks13 IC50
[12] = HDF cell survival relative to DMSO-only control at the first (or only) Non-Toxic Concentration value
[13] = HDF cell survival relative to DMSO-only control at the second Non-Toxic Concentration value

Sequence of Mtb Pks13-TE domain (wild-type) (I6X8D2 1451-1733): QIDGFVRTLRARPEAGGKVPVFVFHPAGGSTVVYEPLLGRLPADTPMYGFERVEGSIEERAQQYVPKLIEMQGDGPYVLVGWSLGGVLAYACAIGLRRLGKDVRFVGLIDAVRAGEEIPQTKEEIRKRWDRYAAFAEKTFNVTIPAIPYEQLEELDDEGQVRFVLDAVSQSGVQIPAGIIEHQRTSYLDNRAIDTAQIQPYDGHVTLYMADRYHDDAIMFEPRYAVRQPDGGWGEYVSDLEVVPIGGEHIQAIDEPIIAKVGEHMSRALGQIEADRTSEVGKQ

Compound	IC50 [1, 6]	MIC (Mtb strain mc^27000; [8])	MIC (Mtb strain mc^27000; [10])	IC50 [1, 11]	Survival vs. Control [2, 12]	further results
CCOC(=O)c1c(-c2ccccc2)oc2ccc(O)c(CN3CCCC(C)C3)c12 (stereo not shown) [compound 2]	120 nM					higher MIC compared to the test compound (Mtb strain mc^27000): ~2 fold; MIC (Mtb strain mc^27000; [3]): 4.4 ± 0.2 µM (≈ 1.73 µg/mL); MIC (Mtb strain mc^27000; [4]): 4.4 ± 0.2 µM (≈ 1.73 µg/mL); IC50 [1, 5]: 120 ± 20 nM; growth inhibition in HDF cells relative to DMSO only control ([2]; up to 40 (unit not given)): did not show any growth inhibition
CCOC(=O)c1c(-c2ccccc2)oc2ccc(O)c(CN3CCCC3)c12 [compound 3]	240 ± 20 nM					higher MIC compared to the test compound (Mtb strain mc^27000): ~2 fold; MIC (Mtb strain mc^27000; [7]): 4.1 µM (≈ 1.5 µg/mL); MIC (Mtb strain mc^27000; [4]): 4.1 ± 0.1 µM (≈ 1.5 µg/mL); IC50 [1, 5]: 240 ± 20 nM; IC50 ([2]; read-out: half-maximum inhibitory concentration in HDF cells, HDF cells, resazurin): > 15000 nM
CCOC(=O)c1c(-c2ccccc2)oc2ccc(O)c(CN3CCCCCC3)c12 [compound 4]	280 ± 30 nM	4.6 ± 0.3 µM (≈ 1.81 µg/mL)				higher MIC compared to the test compound (Mtb strain mc^27000): ~2 fold; MIC (Mtb strain mc^27000; [9]): 4.6 ± 0.03 µM (≈ 1.81 µg/mL); IC50 [1, 5]: 280 ± 30 nM; growth inhibition in HDF cells relative to DMSO only control [2]: did not show any growth inhibition
CCOC(=O)c1c(-c2ccccc2)oc2ccc(O)c(CN3CCOCC3)c12 [compound 5]	710 nM					higher MIC compared to the test compound (Mtb strain mc^27000): 6 fold; MIC (Mtb strain mc^27000; [3]): 13.3 ± 1.6 µM (≈ 5.07 µg/mL); MIC (Mtb strain mc^27000; [4]): 13.3 ± 1.6 µM (≈ 5.07 µg/mL); MIC higher than compound F in whole cell testing (Mtb strain mc^27000; relative to compound F): ~2 fold; IC50 [1, 5]: 710 ± 50 nM; IC50 value lower than compound F against Pks13-TE ([1]; relative to compound F): > 2 fold; loss of inhibitory activity / higher IC50 against Pks13-TE compared to the test compound ([1]; relative to test compound): ~3 fold; growth inhibition in HDF cells relative to DMSO only control ([2]; up to 40 (unit not given)): did not show any growth inhibition
Oc1ccc2[nH]c(-c3ccccc3)nc2c1CN1CCCCC1 [compound 8]	6800 nM	22 µM (≈ 6.76 µg/mL)	22 µM (≈ 6.76 µg/mL)	6800 nM	78%	Survival vs. Control [2, 13]: 94%
CCOC(=O)c1c(-c2ccccc2)oc2ccc(O)c(CN3CCCCC3)c12 [compound 13]	300 nM	0.4 µM (≈ 0.152 µg/mL)	0.4 µM (≈ 0.152 µg/mL)	260 nM	105%	MIC (Mtb strain mc^27000; [9]): 0.4 µM (≈ 0.152 µg/mL); growth inhibition in HDF cells relative to DMSO only control [2]: did not show any growth inhibition; Non-Toxic Concentration [2]: 50 µM
CCOC(=O)c1c(-c2ccc(OC)cc2)oc2ccc(O)c(CN3CCCCC3)c12 [compound 21]	290 nM	2.6 µM (≈ 1.06 µg/mL)	2.6 µM (≈ 1.06 µg/mL)	290 nM	104%	Non-Toxic Concentration [2]: 50 µM
CCOC(=O)c1c(-c2ccccc2)oc2cc(N)c(O)c(CN3CCCCC3)c12 [compound 27]	370 nM	8 µM (≈ 3.16 µg/mL)	8 µM (≈ 3.16 µg/mL)	370 nM	77%	Survival vs. Control [2, 13]: 114%
CNC(=O)c1c(-c2ccc(F)cc2)oc2ccc(O)c(CN3CCCCC3)c12 [compound 29]	300 nM	4.5 µM (≈ 1.72 µg/mL)	4.5 µM (≈ 1.72 µg/mL)	300 nM	89%	Survival vs. Control [2, 13]: 112%
CCOC(=O)c1c(-c2ccccc2)oc2cc(N)cc(CN3CCCCC3)c12 [compound 34]	4500 nM	9.2 µM (≈ 3.48 µg/mL)	9.2 µM (≈ 3.48 µg/mL)	4500 nM	82%	Non-Toxic Concentration [2]: 100 µM
CCOC(=O)c1c(-c2ccccc2)oc2cc(O)cc(CN3CCCCC3)c12 [compound 38]		6.7 µM (≈ 2.54 µg/mL)	6.7 µM (≈ 2.54 µg/mL)	450 nM	111%	Non-Toxic Concentration [2]: 100 µM
CC(C)(C)OC(=O)N1CCN(C(=O)c2c(-c3ccccc3)oc3ccc(O)c(CN4CCCCC4)c23)CC1 [compound 39]	660 nM	2.1 µM (≈ 1.09 µg/mL)	2.1 µM (≈ 1.09 µg/mL)	660 nM	101%	Non-Toxic Concentration [2]: 100 µM
CCOC(=O)c1c(-c2ccc(F)cc2)oc2cc(O)cc(CCNS(C)(=O)=O)c12 [compound 74]				20000 nM	88%	Non-Toxic Concentration [2]: 25 µM
CNC(=O)c1c(-c2ccc(O)cc2)oc2ccc(O)c(CN3CCC(CO)CC3)c12 [compound 121]	600 nM	40 µM (≈ 16.4 µg/mL)				
CNC(=O)c1c(-c2ccc(O)cc2)oc2ccc(O)c(CN3CCC(CO)C3)c12 (stereo not shown) [compound 122]	510 nM	1 µM (≈ 0.396 µg/mL)				
CNC(=O)c1c(-c2ccc(O)cc2)oc2ccc(O)c(CN3CCC(C(N)=O)CC3)c12 [compound 123]	1600 nM	> 40 µM				
CNC(=O)c1c(-c2ccc(O)cc2)oc2ccc(O)c(CN3CCC(C#N)CC3)c12 [compound 124]	250 nM	20 µM (≈ 8.11 µg/mL)				
NC(=O)c1c(-c2ccc(O)cc2)oc2ccc(O)c(CN3CCCCC3)c12 [compound 125]	170 nM	1.3 µM (≈ 0.476 µg/mL)				
CNC(=O)c1c(-c2ccc(O)cc2)oc2ccc(O)c(CN3CCCC(CO)C3)c12 (stereo not shown) [compound 127]	1100 nM	5 µM (≈ 2.05 µg/mL)				
CNC(=O)c1c(-c2ccc(O)cc2)oc2ccc(O)c(CNC3CCCC3)c12 [compound 128]	1000 nM	1 µM (≈ 0.38 µg/mL)				
CCOC(=O)c1c(-c2ccccc2)oc2ccc(O)c(CN3CCCC(CO)C3)c12 (stereo not shown) [compound 132]	420 nM					MIC (Mtb strain mc^27000; [7]): 10 µM (≈ 4.09 µg/mL)
CCOC(=O)c1c(-c2ccc(O)cc2)oc2ccc(O)c(CN3CCCC(CO)C3)c12 (stereo not shown) [compound 134]	400 nM	2.5 µM (≈ 1.06 µg/mL)				
CNC(=O)c1c(-c2ccccc2)oc2ccc(O)c(CN3CCCC(CO)C3)c12 (stereo not shown) [compound 135]	2000 nM	0.5 µM (≈ 0.197 µg/mL)				
CCOC(=O)c1c(-c2ccccc2)oc2cc(O)cc(CCN)c12 [compound 136]	> 20000 nM					MIC (Mtb strain mc^27000; [7]): 4 µM (≈ 1.3 µg/mL)
CNC(=O)c1c(-c2ccccc2)oc2ccc(O)c(CCNC3CCCC3)c12 [compound 141]	1400 nM					MIC (Mtb strain mc^27000; [7]): 10.0 µM (≈ 3.78 µg/mL)

From patent US20180111913A1, “SUBSTITUTED BENZOFURAN DERIVATIVES AS NOVEL ANTIMYCOBACTERIAL AGENTS” (priority 2015, published 2018)
